# Results reported in patent EP4549150A1, “RESIN COMPOSITION FOR THREE-DIMENSIONAL PRINTING” (Cubicure GmbH, priority 2023, dated 2025).
# Marks after values point to notes of the source that are not given here.
# What was measured:
# Type in all cases: physicochemical
# [1] = Viscosity by rheology (temperature ramp, cone-plate rheometer); settings: shear rate 60 s^-1
# Method: Viscosity is another crucial parameter on the development of a reactive diluent. To obtain an effective reactive diluent, monomers providing a low viscosity need to be obtained. The referred viscosity is preferably between 5 and 100 mPa.s, more preferably between 5 and 50 mPa.s, and even more preferably 5 and 20 mPa.s. The presented viscosities refer to the process temperature which can be between 30-150°C. The viscosity was determined via rheology. Rheology measurements were performed using an Anton Paar MCR 102 rheometer, equipped with a P-PTD 200/GL Peltier glass plate and an H-PTD200 heating hood. For measuring the rheological properties, a temperature ramp experiment was performed from 25-100°C with a heating rate of 0.5°C min^-1, using a CP25 measurement system (cone plate with a 2° angle and 25 mm diameter) at a gap distance of 0.1 mm and with a shear rate of 60 s^-1.
# [2] = Volatility: weight loss after 24 hours in oven; settings: for weight loss relative to example 1: ratio to weight loss of example 1
# Method: Volatility can be assessed from the weight lost after 24 hours, and is preferably below 10%, more preferably below 5% and even more preferable below 1% at the process temperature (between 30 and 150°C). For the determination of the volatility of the compounds 25 mL flasks (Ø 30 mm) with approximately 2 grams of the test compound were placed in a Memmert oven at 50 °C and 80°C for 24 hours and the volatility was determined as the weight loss in percent (w/w).
# [3] = Photo-DSC photo-reactivity study; settings: 50°C, 365 nm, 1% w/w TPO-L; for t95%: time when 95% of the total heat of polymerization has evolved; for tmax: time when maximum heat evolution was reached
# Method: Photo-DSC (differential scanning calorimetry) studies were performed using a Netzsch DSC 204 F1 containing an autosampler and coupled to an intracooler IC85 cooling device. The system was connected to an Omnicure LX500 controller with a 365 nm LED and the power intensity was set on the sample at 17 mW cm^-2 (measured using a Thorlabs SMC100 powermeter and the corresponding S310C thermal power head). The test samples were mixed in a vortex mixer for 3 minutes with 1% w/w of TPO-L (a commercially available photoinitiator) and then […] were transferred to an aluminum crucible without lid. All experiments were conducted under Nitrogen atmosphere (flow = 20 mL/min) at 50°C and the samples were irradiated for 5 minutes. Triplicate DSC measurements were performed for each example. The measured heat of polymerization (ΔH) was calculated by integrating the area under the curve from 0 to 200 s.
# Here, tmax is the time when maximum heat evolution was reached and t95% corresponds to the point when 95% of the total heat of polymerization has evolved (0 s corresponds to the moment when light is triggered). The double bound conversion (DBC) was calculated from the experimentally obtained heat of polymerization and the theoretical polymerization enthalpy indicated in the literature (56 kJ mol^-1 for methacrylates).
# [4] = Dynamic Mechanical Analysis (DMA) of printed specimens; settings: increasing the percentage of reactive diluent from 10 to 30% in X-851-1066
# Method: For the (thermo)mechanical tests and water uptake tests, Example 1 or Reference 2 were mixed with two commercially available oligomers, namely Ebecryl 8811 (Allnex) a difunctional aliphatic urethane acrylate and BR-952 (Bomar) a difunctional aliphatic urethane methacrylate in different ratios.
# For the sample preparation a speedmixer (DAC 150.1 FVZ-K, Hauschild) was used. 70 g of the total formulation was mixed at 3000 rpm for 10 minutes. After that the resin composition was degassed until no air bubbles were released.
# Test specimens were printed on a Cubicure Caligma 200 DLP 405 nm. Light Pulse Duration was set to 6000, corresponding to 1.5 s total exposure time, and print speed to 20 mm/s. Processing temperature was 35°C, due to the high volatility of Reference 2.
# Dynamic Mechanical Analysis (DMA) of the printed specimens measuring 50x5x1 mm^3 was performed using a DMA8000 Dynamic Mechanical Analyzer from PerkinElmer. The measurements were performed using the tension mode, from 30-160 °C with a heating rate of 2°C min^-1 and frequency of 1 Hz. In these experiments the evolution of the storage modulus G' with increasing temperature was observed and the Tg was determined (maximum value for tan δ).
compound,measurement,setting,value
"C=C(C)C(=O)OC1CCCCC1O (stereo not drawn) [Ex1, 2-hydroxycyclohexyl methacrylate]",Viscosity,[1]; 25°C (room temperature),53 mPa.s
same,Viscosity,[1]; 40°C,26 mPa.s
same,Viscosity,[1]; 50°C,16 mPa.s
same,Viscosity,[1]; 70°C,7 mPa.s
same,Viscosity,[1]; 90°C,4 mPa.s
same,Viscosity,[1]; 100°C,3 mPa.s
same,Volatility [weight loss %],[2]; 50°C,5%
same,Volatility [weight loss %],[2]; 80°C,20%
same,t95%,[3],43 s
same,tmax,[3],14 s
same,decrease of Tg of the photopolymer,[4],4%
"C=C(C)C(=O)OC1CCCCC1OC(=O)C1CCCCC1 (stereo not drawn) [Ex2, 2-(cyclohexylcarbonyloxy)cyclohexyl methacrylate]",Viscosity,[1]; 25°C (room temperature),27 mPa.s
same,Viscosity,[1]; 40°C,17 mPa.s
same,Viscosity,[1]; 50°C,12 mPa.s
same,Viscosity,[1]; 70°C,7 mPa.s
same,Viscosity,[1]; 90°C,4 mPa.s
same,Viscosity,[1]; 100°C,4 mPa.s
same,Volatility [weight loss %],[2]; 50°C,1%
same,Volatility [weight loss %],[2]; 80°C,14%
same,t95%,[3],66 s
same,tmax,[3],17 s
"C=C(C)C(=O)OC1CCCCC1OC(=O)C(C)(C)C (stereo not drawn) [Ex3, 2-(isopropenylcarbonyloxy)cyclohexyl 2,2-dimethylpropionate]",Viscosity,[1]; 25°C (room temperature),13 mPa.s
same,Viscosity,[1]; 40°C,9 mPa.s
same,Viscosity,[1]; 50°C,6 mPa.s
same,Viscosity,[1]; 70°C,4 mPa.s
same,Viscosity,[1]; 90°C,2 mPa.s
same,Viscosity,[1]; 100°C,2 mPa.s
same,Volatility [weight loss %],[2]; 50°C,2.7%
same,Volatility [weight loss %],[2]; 80°C,21%
same,t95%,[3],87 s
same,tmax,[3],51 s
"C=C(C)C(=O)OC1CCCCC1OC(=O)Cc1ccccc1 (stereo not drawn) [Ex4, 2-(benzylcarbonyloxy)cyclohexyl methacrylate]",Viscosity,[1]; 25°C (room temperature),110 mPa.s
same,Viscosity,"[1]; 25°C (room temperature), listed as Example 4",174 mPa.s
same,Viscosity,[1]; 40°C,53 mPa.s
same,Viscosity,[1]; 50°C,31 mPa.s
same,Viscosity,[1]; 70°C,13 mPa.s
same,Viscosity,[1]; 90°C,8 mPa.s
same,Viscosity,[1]; 100°C,7 mPa.s
same,Volatility [weight loss %],[2]; 50°C,0.09%
same,Volatility [weight loss %],[2]; 80°C,17%
same,t95%,[3],174 s
same,tmax,[3],26 s
"C=C(C)C(=O)OC1CCCCC1OC(=O)C(CC)CCCC (stereo not drawn) [Ex5, 2-(isopropenylcarbonyloxy)cyclohexyl 2-ethylhexanoate]",Viscosity,[1]; 25°C (room temperature),174 mPa.s
same,Viscosity,"[1]; 25°C (room temperature), listed as Example 5",110 mPa.s
same,Viscosity,[1]; 40°C,101 mPa.s
same,Viscosity,"[1]; 40°C, listed as example 5",53 mPa.s
same,Viscosity,[1]; 50°C,65 mPa.s
same,Viscosity,[1]; 70°C,34 mPa.s
same,Viscosity,[1]; 90°C,20 mPa.s
same,Viscosity,[1]; 100°C,19 mPa.s
same,Volatility [weight loss %],[2]; 50°C,0.6%
same,Volatility [weight loss %],[2]; 80°C,1.9** %
"C=C(C)C(=O)OCCO [Ref2, 2-hydroxyethylmethacrylate, reference compound]",Viscosity,[1]; 25°C (room temperature),6 mPa.s
same,Viscosity,[1]; 40°C,4 mPa.s
same,Viscosity,[1]; 50°C,3 mPa.s
same,Viscosity,[1]; 70°C,2 mPa.s
same,Viscosity,[1]; 90°C,1 mPa.s
same,Viscosity,[1]; 100°C,1 mPa.s
same,Volatility [weight loss %],[2]; 50°C,34%
same,Volatility [weight loss %],[2]; 80°C,89%
same,weight loss relative to example 1,[2]; 80°C,more than 4 times
same,t95%,[3],65 s
same,tmax,[3],43 s
same,decrease of Tg of the photopolymer,[4],13%
"Isobornyl methacrylate [Ref1, reference compound]",Viscosity,[1]; 25°C (room temperature),8 mPa.s
same,Viscosity,[1]; 40°C,6 mPa.s
same,Viscosity,[1]; 50°C,4 mPa.s
same,Viscosity,[1]; 70°C,3 mPa.s
same,Viscosity,[1]; 90°C,2 mPa.s
same,Viscosity,[1]; 100°C,2 mPa.s
same,Volatility [weight loss %],[2]; 50°C,12%
same,Volatility [weight loss %],[2]; 80°C,65%
same,weight loss relative to example 1,[2]; 80°C,3 times
same,t95%,[3],67 s
same,tmax,[3],36 s
